Assay results reported in US10221163B2 (priority 2015, dated 2019).
pIC50: −log10 of the molar value.

Experiments:
[1] = tested on: Pseudomonas aeruginosa efflux+ (MB9798), IMP-1; type: cell-based; parameters: Concentration of metallo-β-lactamase inhibitor which restores susceptibility of efflux + (MB9798) strain to imipenem: unit not given here; details: efflux+ MB9798; imipenem at 2 μg/mL; in the presence of a class A, C, D serine β-lactamase inhibitor closely related to relebactam
How it was run: (§1)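 Steps: add fixed imipenem and/or ceftazidime (usually CLSI breakpoint) and fixed AmpC-directed class A/C inhibitor to microbroth MIC wells; titrate MBL inhibitor; record concentration regaining susceptibility for each PAO1-derived strain; divide efflux+ by efflux− value.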

VIM-1 = VIM-1 (Pseudomonas aeruginosa (strain ATCC 15692 / DSM 22644 / CIP 104116 / JCM 14847 / LMG 12228 / 1C / PRS 101 / PAO1), UniProt A0A0F7KYQ8); experiment: biochemical; details: fluorescence assay, CCF2-FA substrate, 30 pM enzyme, 2 hours at 25° C.; read-out: VIM-1 IC50
How it was run: (§2)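 Class B activity is measured in the presence of compound by fluorescence with CCF2-FA after a 2-hour incubation at 25° C. IC50 is taken from a 4-parameter fit of semi-logarithmic dose-response data.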

[2] = tested on: Pseudomonas aeruginosa efflux− (MB9799), IMP-1; type: cell-based; details: efflux− MB9799; imipenem at 2 μg/mL; in the presence of a class A, C, D serine β-lactamase inhibitor closely related to relebactam
How it was run: as §1

IMP-1 = IMP-1 (Serratia marcescens, UniProt P52699); experiment: biochemical; type: biochemical; details: fluorescence assay, CCF2-FA substrate, 2 pM enzyme, 2 hours at 25° C.; read-out: IMP-1 IC50
Chain of IMP-1 (P52699 whole entry, looked up, species assumed): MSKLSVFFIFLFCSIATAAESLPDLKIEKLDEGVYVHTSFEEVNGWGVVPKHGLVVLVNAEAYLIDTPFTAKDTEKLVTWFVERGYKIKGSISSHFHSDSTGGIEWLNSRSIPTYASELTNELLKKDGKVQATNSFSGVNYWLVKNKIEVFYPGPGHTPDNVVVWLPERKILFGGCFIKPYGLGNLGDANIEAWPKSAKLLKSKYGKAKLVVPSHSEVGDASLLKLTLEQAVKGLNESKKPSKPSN
How it was run: as §2

NDM-1 = NDM-1 (Klebsiella pneumoniae, UniProt C7C422); experiment: biochemical; type: biochemical; details: fluorescence assay, CCF2-FA substrate, 1 pM enzyme, 2 hours at 25° C.; read-out: NDM-1 IC50
Chain of NDM-1 (C7C422 whole entry, looked up, species assumed): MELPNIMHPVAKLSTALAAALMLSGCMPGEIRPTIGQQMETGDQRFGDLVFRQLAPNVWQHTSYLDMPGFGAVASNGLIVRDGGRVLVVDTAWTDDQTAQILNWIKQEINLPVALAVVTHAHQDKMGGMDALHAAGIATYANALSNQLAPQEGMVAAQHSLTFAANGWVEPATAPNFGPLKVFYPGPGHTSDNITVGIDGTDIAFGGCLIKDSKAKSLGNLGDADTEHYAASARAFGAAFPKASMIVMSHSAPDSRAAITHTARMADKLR
How it was run: as §2

[3] = tested on: Klebsiella pneumoniae expressing VIM-1 (IHMA599644); type: cell-based; details: VIM-1 strain IHMA599644, with imipenem 1 μg/ml, 95% inhibition of growth
How it was run: (§3)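 Colonies grown overnight on blood agar at 35° C were suspended in saline, diluted 1:100 into 1.1×CAMHB and dispensed. Imipenem was added to 1 μg/ml, then test compound. After 22 hours to 24 hours at 35° C, absorbance was recorded.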

[4] = tested on: Serratia marcescens expressing IMP-1 (CL5741); type: cell-based; details: IMP-1 strain CL5741, with imipenem 1 μg/ml, 95% inhibition of growth
How it was run: as §3

[5] = tested on: Escherichia coli expressing NDM-1 (CLB30005, CLB30016); type: cell-based; details: NDM-1 strain, with imipenem 1 μg/ml, 95% inhibition of growth
How it was run: as §3

[6] = tested on: Pseudomonas aeruginosa MB9798 vs MB9799; details: fold difference between efflux+ (MB9798) and efflux− (MB9799) strains; imipenem at 2 μg/mL
How it was run: as §1

Row | SMILES | Concentration of metallo-β-lactamase inhibitor which restores susceptibility of efflux + (MB9798) strain to imipenem [1] | pIC50 (VIM-1) | Concentration of metallo-β-lactamase inhibitor which restores susceptibility of efflux − (MB9799) strain to imipenem [2] | pIC50 (IMP-1) | pIC50 (NDM-1) | Klebsiella pneumoniae MITC95 [3] [µM] | Serratia marcescens MITC95 [4] [µM] | Escherichia coli MITC95 [5] [µM] | Efflux ratio [6]
1 | NCCNS(=O)(=O)c1ccc(-c2cccc(NC(=O)[C@@H](N)CN)c2)c(-c2nn[nH]n2)c1S(N)(=O)=O [Example 453, (S)-2,3-Diamino-N-(4′-(N-(2-aminoethyl)sulfamoyl)-3′-sulfamoyl-2′-(2H-tetrazol-5-yl)-[1,1′-biphenyl]-3-yl)propanamide] | 3.125 | 9.61 | 1.563 | 8.45 | 9.06 | 3.125 | 3.125 | 1.563 | 2.00
2 | NCCNS(=O)(=O)c1ccc(-c2cccc(NC(=O)[C@H](N)CO)c2)c(-c2nn[nH]n2)c1S(N)(=O)=O [Example 454, (R)-2-amino-N-(4′-(N-(2-aminoethyl)sulfamoyl)-3′-sulfamoyl-2′-(2H-tetrazol-5-yl)-[1,1′-biphenyl]-3-yl)-3-hydroxypropanamide] | 3.125 | 9.58 | 1.563 | 8.46 | 9.12 | 6.25 | 3.125 | 1.563 | 2.00
3 | NCCNS(=O)(=O)c1ccc(-c2cccc3c2CCCN3)c(-c2nn[nH]n2)c1S(N)(=O)=O [Example 455, N1-(2-Aminoethyl)-4-(1,2,3,4-tetrahydroquinolin-5-yl)-3-(2H-tetrazol-5-yl)benzene-1,2-disulfonamide] | 12.5 | 9.79 | 1.563 | 9.28 | 9.67 | 3.125 | 3.125 | 1.563 | 8.00
4 | NCCNc1cc(-c2ccc(S(=O)(=O)NCCN)c(S(N)(=O)=O)c2-c2nn[nH]n2)ccn1 [Example 456, N1-(2-Aminoethyl)-4-(2-((2-aminoethyl)amino)pyridin-4-yl)-3-(2H-tetrazol-5-yl)benzene-1,2-disulfonamide] | 1.563 | 9.26 | 0.7813 | 8.42 | 8.81 | 1.563 | 0.7813 | 0.7813 | 2.00
5 | NCCNc1cc(-c2ccc(S(=O)(=O)NCCO)c(S(N)(=O)=O)c2-c2nn[nH]n2)ccn1 [Example 457, 4-(2-((2-aminoethyl)amino)pyridin-4-yl)-N1-(2-hydroxyethyl)-3-(2H-tetrazol-5-yl)benzene-1,2-disulfonamide] | 50 | 9.31 | 1.563 | 8.28 | 8.43 | 6.25 | 3.125 | 1.563 | 31.99
6 | NCCNc1cc(-c2ccc(S(=O)(=O)N[C@@H]3CCNC3)c(S(N)(=O)=O)c2-c2nn[nH]n2)ccn1 [Example 458, (R)-4-(2-((2-aminoethyl)amino)pyridin-4-yl)-N1-(pyrrolidin-3-yl)-3-(2H-tetrazol-5-yl)benzene-1,2-disulfonamide] | 3.125 | 9.88 | 0.7813 | 8.42 | 9.27 | 1.563 | 1.563 | 0.7813 | 4.00
